Measurements: patent publication US7109329B2, “Neurologically active compounds and compounds with multiple activities” (priority 1988, dated 2006)

Assays:
[1] = Formation of scar tissue at the trauma site; assay type: in vivo
Text: It is believed that these mixed agonists interfere with triple helix formation in the synthesis of collagen protein, thus preventing or reducing the formation of hard scar tissue at the trauma site.
The purpose of liquid nitrogen is to reduce the structural integrity of the collagen laden, glial scar tissue, by freezing and defrosting. Collagenase then initiates a debridgement of the scar without attacking the nervous and osseous tissue. If required, streptokinase, or alteplase, both plasminogen activators can also be used to bring about a complete debridgement. In addition to 3-amino-propionitrile (a latherogen), 5-fluorodeoxyuridine and dehydroproline can be used to arrest further glial and fibroblastic invasion of the scar region, respectively.

[2] = Spinal cord transection in rats: recovery of hind limb function and reflexes under treatment; assay type: in vivo, rat
Experimental: The spinal cord of a group of rats was completely transected. After surgery, the rats were treated with guanabenz.
The rats presented with a condition of bloody eyes and nose for a period of 2 to 5 days after the transection. During the first two-weeks, proper plantar placement, weight bearing on the hind limbs and/or coordinated walking was not present.
In a further group of six rats the spinal cord was transected in accordance with the above Comparative Examples. After surgery and cleaning and mechanical treatment of the wounds in the same fashion, an intraperitoneal injection of 7-(guanidino-acetyl-theophylline (“C”) was administered at a dose of 5.0 mg/kg 24 hours post surgery. Within a 7 to 9 day period, the rats engaged in walking movements of the hind limbs coordinated with those of the front limbs and the hind limbs, including proper plantar placement and full weight bearing on the hind limbs.
Within 36 hours after the spinal cord transection, i.e., only 12 hours after initial administration of Compound C, the initial bloody eyes and nose condition had abated. […] Further the animals were alert and continued to eat in substantially normal quantities.
Starting 24 hours post-transection, immediately after each intraperitoneal administration of Compound C, reflexes such as the tail-flick and cross-extension would return, within 12 minutes post injection. […] Within 8 to 11 days the response became sustained, and was accompanied by long-term therapeutic restoration of coordinated movements, plantar placements and weight-bearing by the hind limbs.

[3] = Spasticity in previously untreated spinal cord transected rats (Working Example 2); assay type: in vivo, rat; conditions: 4.0 mg/kg BID intraperitoneally for 7 days
Text: It was noted that some of the untreated rats in Comparative Example A developed severe spasticity three weeks after transection.

[4] = Blood pressure after administration, cat; assay type: in vivo
[5] = Blood pressure after administration, sheep; assay type: in vivo
[6] = for mean intraperitoneal temperature / temperatures of the liver and the kidneys: 4 mg I.P.; for mean intraperitoneal temperature / temperatures of the liver and the kidneys / core temperature (colonic measurement) after drop: room temperature 21.5° C.; for core temperature (colonic measurement) after drop: eight rats each, 4 mg I.P. in 5% dextrose, normal value 36.5° C.; for core temperature allowed to fall to: ambient 21° C., before transfer to 42° C. room (guanabenz: after about 15 minutes); for core temperature twenty minutes after injection / mean core temperature one hour after injection: I.P.; for core temperature twenty minutes after injection: G 12 mg/kg, D 6 mg/kg or combination; for mean core temperature one hour after injection: room temperature 19.4° C., guanabenz acetate 12 mg/kg, pentabarbital 25 mg/kg, ketamine 80 mg/kg
Experimental: Room temperature was 21.5° C.
The core temperatures of the rats were allowed to fall to approximately 30° C., after about 15 minutes. At that time, the rats were placed in a temperature controlled room maintained at 42° C., together with 2 control rats treated only with the dextrose solution.
The core temperatures of the rats were allowed to fall to approximately 30° C. At that time, the rats were placed in a temperature controlled room maintained at 42° C., together with two control rats treated only with the dextrose solution.

[7] = Anesthesia in rats judged by reflexes and wakefulness; conditions: for anesthetic state of the treated rats: 4 mg I.P., room temperature 21.5° C.; for anesthesia judged by reflexes (patellar, urethro-anal, startle, corneal etc.) after 30 minutes: room temperature 21° C., G 12 mg/kg, D 6 mg/kg or combination; for reflexes tested (as in Examples 48–53): room temperature 19.4° C.; for reflexes tested (as in Examples 48–53) / appearance of ears and digits of anesthetized animals: guanabenz acetate 12 mg/kg; for reflexes tested (as in Examples 48–53) / appearance of ears and digits of anesthetized animals / survival at the given doses: pentabarbital 25 mg/kg, ketamine 80 mg/kg
[8] = Core temperature and behaviour of treated rats in a room at 42° C.; assay type: in vivo, rat; conditions: 4 mg intraperitoneally; for core temperature in the 42° C. room: placed at core temperature about 30° C.
[9] = Electrical tail stimulation, vocalization threshold (anesthesia) in rats; assay type: in vivo, rat
Experimental: A fifth rat was treated with merely an equal amount of the dextrose solution without guanabenz acetate. The rats were subjected to an electrical tail stimulation, by electrodes attached to their tails, to determine the point of positive (threshold) vocalization.
The normal vocalization threshold, and the point at which the control rat vocalized was approximately 7 volts. […] To bring the rats out of anesthesia, the rats were then injected with 40 mgs. of aminophylline, also in 1 ml of a 5% aqueous dextrose solution. […] The normal threshold for vocalization was reestablished, as there was no vocalization at 6 volts following recovery from anesthesia.
The rats were maintained under anaesthesia for a period of 50 minutes before injection of the aminophylline.

[10] = Intravenous anesthesia of a 70 kg mammal; assay type: in vivo
Experimental: Thereafter, an intravenous injection containing 20 mg of aminophylline is administered over a period of five minutes. The large mammal is fully awakened within about 20 minutes, appearing alert and refreshed.
The period of time required to fully reverse the anesthesia can be increased or decreased by proportionally changing the amount of the antagonist. After metabolism of guanabenz, the mammal will spontaneously awaken, within about three to six hours after the I.V. drip is discontinued.

[11] = Reversal of guanabenz-induced anesthesia and hypothermia by antagonists; assay type: in vivo, rat
[12] = Spinal cord trauma (500 g-cm weight drop at T4) in cats: urinary bladder function, micturition; assay type: in vivo, cat
Experimental: A cat was anesthetized using intravenous pentobarbital (30 mg/kg) after which its arterial blood pressure was continuously monitored for at least two hours. After recording stable arterial blood pressure, a dorsal laminectomy was performed in the thoracic region of the cat from T3 to T5; after restoration of blood pressure, the cat was traumatized by means of a twenty gram weight being dropped from a height of twenty-five centimeters (500 g-cm force) on the exposed dura of the spinal cord at the fourth thoracic segment.
Ten cats were spinally traumatized in accordance with the procedure set forth above in Comparative Example A. Five of these spinal cats were treated with Compound C commencing three hours after trauma and five of the cats were treated with guanabenz beginning at the same time.
Spinalized cats required eight weeks of treatment with guanabenz before regaining controlled micturition. Cats treated with Compound C, required only three to five weeks of treatment to achieve the same results.

[13] = Core temperature of treated rats in a room at minus 30° C.; assay type: in vivo, rat; conditions: four rats, 4 mg intraperitoneally, placed about 30 minutes after injection
Experimental: (room temperature). […] (plus or minus 0.5° C.). The core temperatures of the four treated rats, as well as that of two control rats who received only the dextrose solution, were continuously monitored.

[14] = Brain and core temperature of treated rats in a room at 4°–5°; assay type: in vivo, Sprague-Dawley rats; conditions: 12 mg/kg IP
Experimental: All sixteen rats were placed in a temperature-controlled room maintained at 4°–5° d. immediately after injection.

[15] = 5.0 mg/kg intraperitoneal 24 hours post surgery
[16] = guanabenz-treated rats (4 mg I.P.), Yohimbine 10 mg I.P.
[17] = Sprague-Dawley rats, 4 mg, tolazoline 4 mg intravenously about twenty minutes before

N=C(N)NN [Aminoguanidine]
effect on formation of the scar [1]: interfere with formation of the scar

Cn1c(=O)c2c(ncn2CC(=O)NC(=N)N)n(C)c1=O [C, Guanidino-7-Acetyltheophylline]
time after initial administration until bloody eyes and nose condition had abated [2, 15]: 12 h | time after spinal cord transection until bloody eyes and nose condition had abated [2, 15]: ≤ 36 h | time post injection until return of reflexes (tail-flick, cross-extension) ([2]; after each intraperitoneal administration, starting 24 hours post-transection): ≤ 12 min | period until walking movements of the hind limbs coordinated with the front limbs, proper plantar placement and full weight bearing ([2]; six spinal transected rats, 5.0 mg/kg intraperitoneal from 24 hours post surgery): 7 to 9 days | signs of sedation or lethargy during the course of treatment ([2]; spinal transected rats, 5.0 mg/kg intraperitoneal): did not exhibit any signs of sedation or lethargy | time until the response became sustained with long-term restoration of coordinated movements ([2]; spinal transected rats, intraperitoneal): 8 to 11 days | time until marked decrease in spasticity ([3]; three spastic control rats three weeks after transection): ≤ 4 days | time until complete elimination of spasticity ([3]; three spastic control rats): 7 days | blood pressure immediately after administration [4]: slight increase | time until blood pressure returned to basal level [4]: ≤ 10 min | blood pressure immediately after administration [5]: slight increase | time until blood pressure returned to basal level [5]: ≤ 10 min

COc1cc(C=NNc2ncc[nH]2)cc(OC)c1OC [Compound 13, Melazine]
mean intraperitoneal temperature [6]: 30.2 °C | temperatures of the liver and the kidneys [6]: ~32.7 °C | core temperature (colonic measurement) after drop [6]: 21.5 °C | anesthetic state of the treated rats [7]: remained awake

Clc1cccc(Cl)c1C=Nc1nc(N=Cc2c(Cl)cccc2Cl)nc(N=Cc2c(Cl)cccc2Cl)n1 [Compound 18, 2,4,6-Tris (2,6-dichlorobenzylideneamino)-1,3,5-s-Triazine]
core temperature allowed to fall to ([6]; 4 mg intraperitoneally): approximately 30 °C | state of treated rats in the 42° C. room [8]: remained calm, but active | core temperature in the 42° C. room [8]: 30 °C

Cn1c(=O)c2[nH]cnc2n(C)c1=O [aminophylline]
voltage at which vocalization was present ([9]; guanabenz-anesthetized rats, 40 mgs. aminophylline, by 8 minutes after injection): 7 volts | voltage at which vocalization returned ([9]; guanabenz-anesthetized rats, 40 mgs. aminophylline, within 6 minutes after injection): 12 volts | time until fully awakened from guanabenz anesthesia ([10]; 70 kg mammal, 20 mg aminophylline intravenous over five minutes): ≤ 20 min | effect on guanabenz-induced anesthesia [11, 16]: caused them to awaken | effect on guanabenz-induced hypothermia (body temperature) [11, 16]: practically no effect on body temperature | effect of injection on melazine-treated rats ([11]; three melazine-treated rats): no discernible effect

Clc1cccc(Cl)c1N=C1NCCN1 [clonidine]
effect on formation of the scar [1]: interfere with formation of the scar

CN1C(=O)CN=C(c2ccccc2)c2cc(Cl)ccc21 [diazepam]
core temperature twenty minutes after injection ([6]; room temperature 21° C.): no change | anesthesia judged by reflexes (patellar, urethro-anal, startle, corneal etc.) after 30 minutes ([7]; I.P.): all such reflexes were present

N=C(N)N/N=C/c1c(Cl)cccc1Cl [guanabenz acetate]
core temperature allowed to fall to ([6]; 4 mg intraperitoneally): approximately 30 °C | mean core temperature one hour after injection [6]: 24.3 °C | core temperature twenty minutes after injection ([6]; room temperature 21° C.): about 31 °C | state of treated rats in the 42° C. room [8]: remained under anesthesia | core temperature in the 42° C. room [8]: 30 °C | reflexes tested (as in Examples 48–53) ([7]; I.P.): disappeared | anesthesia judged by reflexes (patellar, urethro-anal, startle, corneal etc.) after 30 minutes ([7]; I.P.): profound anesthesia

N=C(N)N/N=C/c1c(Cl)cccc1Cl [guanabenz]
muscle mass of hind limbs ([2]; spinal transected rats under I.P. treatment): some, but not significant loss of muscle mass | duration of sedation following each administration ([2]; spinal transected rats, 0.65 mg/kg I.P. twice per day from 72 hours after the lesion): 2 to 4 h | time of treatment until proper plantar placement, weight bearing on the hind limbs and coordinated walking movements ([2]; spinal transected rats, 0.65 mg/kg I.P. twice per day, majority of the rats): third week | urinary bladder function at urodynamic examination ([12]; spinal cats, 0.65 mg/kg bid from three hours after trauma, guanabenz four to five weeks after treatment began, Compound C after seven to twenty-one days): tight urinary sphincter and dyssinergia | treatment required before regaining controlled micturition ([12]; spinalized cats): eight | duration of anesthesia without further administration [9, 17]: four | time until anesthetized [9, 17]: five | vocalization threshold on electrical tail stimulation (failed to vocalize) ([9]; rats 310–350 g, 4 mg intraperitoneally, beginning seven minutes after injection, normal threshold 7 volts): > 10 volts | vocalization threshold on electrical tail stimulation (no vocalization response) ([9]; rats, 4 mg intraperitoneally, thereafter (profoundly anesthetized)): > 40 Volts | mean intraperitoneal temperature [6]: 31.5 °C | temperatures of the liver and the kidneys [6]: about 33.5 °C | core temperature (colonic measurement) after drop [6]: 22.5 °C | core temperature after drop ([6]; four rats, 4 mg intraperitoneally, room temperature 21° C., before cold room): 21 °C | core temperature approximately 15 minutes after placement in the cold room [13]: ~16 °C | behavior after the experiment [14]: resume normal behavior | core temperature lower than the brain temperature by ([14]; ultimately): 10 °C | mean brain temperature after 45 minutes ([14]; 8 rats, original mean 37° C.): 27 °C | total amount in the initial single dose for anesthetic and hypothermic effect ([10]; 60 to 75 kg mammal, intravenous injection): ≤ 0.5 mg/kg | reaction to noxious stimulation and corneal reflex ([10]; 70 kg mammal, 6 mg intravenous): does not overtly react to the noxious stimulation of pin-pricks | time after injection until profound anesthesia ([10]; 70 kg mammal, 6 mg intravenous over three minutes): five | additional duration of profound anesthesia after the drip ([10]; 70 kg mammal, drip 0.1 mg/ml at 1 ml/min for 30 minutes from about 120 minutes after the initial injection): about two | time to spontaneous awakening after the I.V. drip is discontinued ([10]; large mammal, after metabolism of guanabenz): three to six | effect on formation of the scar [1]: interfere with formation of the scar | anesthetic state of the treated rats [7]: anesthetized | I.P. amount sufficient to initially place the rats in an anesthetized condition ([7]; laboratory rats, I.P.): 12 mg per kilogram of body weight

CNC1(c2ccccc2Cl)CCCCC1=O (stereo not drawn) [ketamine]
mean core temperature one hour after injection [6]: 34.5 °C | appearance of ears and digits of anesthetized animals ([7]; I.P.): semi-cyanotic | survival at the given doses ([7]; I.P.): did not survive | reflexes tested (as in Examples 48–53) ([7]; I.P.): disappeared

CCCC(C)C1(CC)C(=O)NC(=O)NC1=O (stereo not drawn) [pentabarbital]
mean core temperature one hour after injection [6]: 29.3 °C | appearance of ears and digits of anesthetized animals ([7]; I.P.): semi-cyanotic | survival at the given doses ([7]; I.P.): did not survive | reflexes tested (as in Examples 48–53) ([7]; I.P.): disappeared
